# Reference: patent publication US20260144766A1, “USE OF CANNABINOID 1 RECEPTOR AGONIST ARACHIDONOYL CYCLOPROPYLAMIDE (ACPA) IN NON SMALL CELL LUNG CANCER” (HACETTEPE UNIVERSITESI, priority 2019, published 2026)
# Entries after “also recorded” stand apart in the source; their conditions may differ.
# What was measured:
# A549 cells [1] = assay: WST-1 proliferation analysis, A549; type: cell-based
# Excerpt: (§1) 1.2. Evaluation of the Dose- and Time-Dependent Effect of ACPA to Cancer Cell Proliferation by WST-1 Technique
# H1299 cells [2] = assay: WST-1 proliferation analysis, H1299; type: cell-based; settings: all doses, days 1, 2 and 3, p<0.05
# Excerpt: as §1
# H358 cells [3] = assay: WST-1 proliferation analysis, H358; type: cell-based; settings: p<0.05
# Excerpt: as §1
# H838 cells [4] = assay: WST-1 proliferation analysis, H838; type: cell-based; settings: p<0.05
# Excerpt: as §1
# A549 cells [5] = assay: Real time impedance-based proliferation analysis, A549; type: cell-based
# Procedure: (§2) 1.3. Evaluation of the Effect of ACPA against Cancer Cell Proliferation by Real Time Impedance-Based Proliferation Analysis
# (§3) ACPA has been applied between this dose range (10^−9, 10^−10, 10^−11 and 10^−12 M) during the real time impedance-based proliferation analysis. After the cells are seeded when the cell indices reach 1.0, ACPA dose range has been applied. The graph has been normalized from the point where the cell indices reached 1.0 and ACPA application has been carried out at different doses. […] After ACPA has been added at the determined dose range, it has led to reduction in the proliferation of H1299 cells as of the 66th hour.
# H1299 cells [6] = assay: Real time impedance-based proliferation analysis, H1299; type: cell-based
# Procedure: as §2, §3
# H358 cells [7] = assay: Real time impedance-based proliferation analysis, H358; type: cell-based
# H838 cells [8] = assay: Real time impedance-based proliferation analysis, H838; type: cell-based
# Procedure: as §2, §3
# [9] = system: A549, H1299, H358 and H838 cells; assay: Efficient dose range over the 4 non-small cell lung cancer lines (WST-1 and real time impedance-based analysis); settings: 4 cell lines A549, H1299, H358 and H838
# Procedure: as §3
# Within the scope of the research, the efficient dose and time of the CB1 receptor agonist ACPA has been calculated using the WST-1 and real time impedance-based proliferation analysis method on the examined 4 different non-small cell lung cancer lines.
# [10] = normalized cell index vs log ACPA concentration, read-out: antiproliferative IC50
# [11] = dose ranges applied, depending on time
structure (smiles),measurement,setting,value
"CCCCC/C=C\C/C=C\C/C=C\C/C=C\CCCC(=O)NC1CC1 [ACPA, Arachidonoyl cyclopropylamide]",proliferation vs control group (WST-1 absorbance),"A549 cells [1]; day 1, doses 10^−12, 10^−11, 10^−10 and 10^−9 M, p<0.05",statistically significantly reduced
same,antiproliferative effect (WST-1),"A549 cells [1]; second and 3rd days, doses applied",antiproliferative effect was not observed
same,antiproliferative effect (WST-1),H1299 cells [2],significant antiproliferative effect; also recorded: Antiproliferative effect has been observed
same,antiproliferative effect (WST-1),"H358 cells [3]; 2nd day, all doses",Antiproliferative effect was seen
same,antiproliferative effect (WST-1),"H358 cells [3]; day 1, doses 10^−10, 10^−8, 10^−7 and 10^−6 M",antiproliferative effect of ACPA was observed
same,proliferation vs control group (WST-1),"H838 cells [4]; 2nd day, 10^−9 M",antiproliferative effect; also recorded: reduced the proliferation of H838 cells statistically significantly
same,proliferation vs control group (WST-1),"H838 cells [4]; 3rd day, 10^−9 and 10^−12 M",antiproliferative effect; also recorded: reduced the proliferation of H838 cells statistically significantly
same,proliferation (normalized cell index),A549 cells [5]; ACPA 10^−9 to 10^−12 M,not exhibited a significant change
same,"efficient dose, effect seen on the 48th hour",A549 cells [5]; WST-1 and impedance analysis,1.39 pM
same,IC50,A549 cells [5]; [10],1.39 pM
same,proliferation in comparison to the control group (impedance),"H1299 cells [6]; 1.39×10^−12 M ACPA (free or released from nanoparticles), 48 and 72nd hours, p<0.05",significant reduction has been observed
same,proliferation (normalized cell index),"H1299 cells [6]; 10^−11 M, as of the 66th hour, p<0.05",significantly reduced the proliferation of cells
same,proliferation (normalized cell index),"H1299 cells [6]; 10^−12, 10^−10 and 10^−9 M, after the 86th hour, p<0.05",significantly reduced the proliferation of cells
same,"efficient dose, effect seen on the 48th hour",H1299 cells [6]; WST-1 and impedance analysis,1.39 pM
same,proliferation (normalized cell index),H1299 cells [6]; [11],reduced the proliferation
same,IC50,H1299 cells [6]; [10],1.39 pM
same,"efficient dose, effect seen on the 48th hour",H358 cells [7]; WST-1 and impedance analysis,1.39 pM
same,proliferation (normalized cell index),H358 cells [7]; [11],reduced the proliferation
same,IC50,H358 cells [7]; [10],1.38 pM
same,proliferation in comparison to the control group (impedance),"H838 cells [8]; 1.39×10^−12 M ACPA, 190th hour, p<0.05",statistically significant reduction
same,proliferation vs control group (normalized cell index),"H838 cells [8]; ACPA doses, following the 30th hour, p<0.05",significantly reduced the proliferation of cells
same,"efficient dose, effect seen on the 48th hour",H838 cells [8]; WST-1 and impedance analysis,34.7 pM
same,proliferation (normalized cell index),H838 cells [8]; [11],reduced the proliferation
same,IC50,H838 cells [8]; [10],34.7 pM
same,dose range found to be efficient in WST-1 analysis,[9],10^−12-10^−9 M
